The experiment deals with VEGF. In words: Hypoxia-inducible endogenous VEGF expression ELISA in HeLa cells. The experiment is classed as cell-based. Conditions: VEGF protein by ELISA. As to the method: The ability of compounds of the invention to modulate hypoxia-inducible endogenous VEGF expression is analyzed as follows. VEGF protein levels are monitored by an ELISA assay (R&D Systems). Briefly, HeLa cells are cultured for 24-48 hours under hypoxic conditions (1% O2, 5% CO2, balanced with nitrogen) in the presence or absence of a compound of the invention. The conditioned media is then assayed by ELISA, and the concentration of VEGF is calculated from the standard ELISA curve of each assay.
A dose-response analysis is performed using the ELISA assay and conditions described above. A series of different concentrations (e.g., seven) are analyzed. In parallel, a dose-response cytotoxicity assay is performed using Cell Titer Glo (Promega) under the same conditions as the ELISA to ensure that the inhibition of VEGF expression is not due to cytotoxicity. Dose-response curves are plotted using percentage inhibition versus concentration of the compound, and EC50 and CC50 values are generated for each compound with the maximal inhibition set as 100% and the minimal inhibition as 0%.
Compounds 156-188 in Table 1 are commercially available. In Table 1, each of the represented compounds is followed by one to five stars.
For orientation: An ELISA detects its analyte on a solid surface through an enzyme-linked reagent.

The mark [1] stands for this setting: Homo sapiens, HeLa, purchased compounds 156-188, hypoxic conditions, read-out: ELISA Activity.
The mark [2] stands for this setting: Homo sapiens, HeLa, purchased compounds 156-188, hypoxic conditions, read-out: ELISA EC50.
The mark [3] stands for this setting: Homo sapiens, HeLa, compounds 1-155, hypoxic conditions (1% O2), read-out: ELISA Activity.
Setting [4] is: Homo sapiens, HeLa, compounds 191-239, hypoxic conditions, read-out: ELISA Activity EC50.

Read-outs that look alike come from different tables or passages of the source.

As to `CC(=O)N1CCn2c3c(c4cc(C)ccc42)CCCC31` (stereo not drawn) [Compound 175, 1-(8-Methyl-1,2,3a,4,5,6-hexahydro-pyrazino[3,2,1-jk]carbazol-3-yl)-ethanone], the EC50 is more than 1000 nM under setting [1] and more than 10000 nM under setting [2].
Regarding `O/N=C1\CCCc2c1[nH]c1c(Br)cccc21` [Compound 98, 8-Bromo-2,3,4,9-tetrahydro-carbazol-1-one oxime], the EC50 under setting [3] is more than 1000 nM.
Turning to `O=C1CCCc2c1oc1ccc(Br)cc21` [Compound 105, 8-Bromo-2,3-dihydro-1H-dibenzofuran-4-one], the EC50 under setting [3] is more than 1000 nM.
On the same count and under the same terms, the figure for `Brc1ccc2[nH]c3c(c2c1)CCCC3N1Cc2ccccc2C1` (stereo not drawn) [Compound 7, 6-Bromo-1-(1,3-dihydro-isoindol-2-yl)-2,3,4,9-tetrahydro-1H-carbazole] is less than 10 nM.
For `OC(COc1ccc(C2CCCCc3c2[nH]c2ccc(Cl)cc32)cc1)Cn1cncn1` (stereo not drawn) [Compound 235], the EC50 under setting [4] was 10 to 40 nM.
Same read-out and setting: the figure for `OC(COc1ccc(C2CCCCc3c2[nH]c2ccc(Cl)cc32)cc1)Cn1ccnc1` (stereo not drawn) [Compound 231] is less than 10 nM.
`O=C(NC1CCCc2c1[nH]c1ccc(Br)cc21)c1cnccn1` (stereo not drawn) [Compound 74, Pyrazine-2-carboxylic acid (6-bromo-2,3,4,9-tetrahydro-1H-carbazol-1-yl)-amide]: the EC50 under setting [3] was less than 10 nM.
In the case of `Cn1cccc1C(=O)NC1CCCc2c1[nH]c1ccc(Br)cc21` (stereo not drawn) [Compound 155, 1-Methyl-1H-pyrrole-2-carboxylic acid (6-bromo-2,3,4,9-tetrahydro-1H-carbazol-1-yl)-amide], under setting [3], the EC50 was 10 to 40 nM.
Same read-out and setting: the figure for `O=C1CCCc2c1[nH]c1cc(Br)ccc21` [Compound 110, 7-Bromo-2,3,4,9-tetrahydro-carbazol-1-one] is more than 1000 nM; for `O=C1c2sccc2CN1C1CCCc2c1[nH]c1ccc(Br)cc21` (stereo not drawn) [Compound 5, 5-(6-Bromo-2,3,4,9-tetrahydro-1H-carbazol-1-yl)-4,5-dihydro-thieno[2,3-c]pyrrol-6-one] it is less than 10 nM; for `COc1ccc2[nH]c3c(c2c1)CCC/C3=N\O` [Compound 84, 6-Methoxy-2,3,4,9-tetrahydro-carbazol-1 one oxime] it is more than 1000 nM.
Still for that read-out and setting: the figure for `Brc1ccc2[nH]c3c(c2c1)CCCC3Nc1ccc(-c2ccccc2)cc1` (stereo not drawn) [Compound 28, Biphenyl-4-yl-(6-bromo-2,3,4,9-tetrahydro-1H-carbazol-1-yl)-amine] is 10 to 40 nM; for `OC1CCCc2c1oc1ccc(Br)cc21` (stereo not drawn) [Compound 108, 8-Bromo-1,2,3,4-tetrahydro-dibenzofuran-4-ol] it is more than 1000 nM.
Consider `OC(COc1ccc(C2CCCc3c2[nH]c2ccc(Br)cc32)cc1)CN1CCSCC1` (stereo not drawn) [Compound 199], for which the EC50 under setting [4] is less than 10 nM.
Still for that read-out and setting: the figure for `OC(COc1ccc(C2CCCc3c2[nH]c2ccc(Br)cc32)cc1)Cn1ccnn1` (stereo not drawn) [Compound 202] is less than 10 nM.
Consider `NC1CCCc2c1[nH]c1ccc(Br)cc21` (stereo not drawn) [Compound 89, 6-Bromo-2,3,4,9-tetrahydro-1H-carbazol-1-ylamine], for which the EC50 under setting [3] was more than 1000 nM.
With `Oc1ccc(C2CCCc3c2[nH]c2ccc(Cl)cc32)cc1` (stereo not drawn) [Compound 223], the EC50 under setting [4] lay in the range of 40 to 200 nM.
Regarding `Cn1c2c(c3cc(Br)ccc31)CCCC2=O` [Compound 88, 6-Bromo-9-methyl-2,3,4,9-tetrahydro-carbazol-1-one], under setting [3], the EC50 was more than 1000 nM.
`CC(C)(C)CCNC1CCCc2c1[nH]c1ccc(Br)cc21` (stereo not drawn) [Compound 79, (6-Bromo-2,3,4,9-tetrahydro-1H-carbazol-1-yl)-(3,3-dimethyl-butyl)-amine]: the EC50 under setting [3] is more than 1000 nM.
For the molecule `FC(F)(F)c1ccc(NC2CCCc3c2[nH]c2ccc(Br)cc32)cc1` (stereo not drawn) [Compound 6, (6-Bromo-2,3,4,9-tetrahydro-1H-carbazol-1-yl)-(4-trifluoromethyl-phenyl)-amine], the EC50 under setting [3] was less than 10 nM.
Regarding `Cc1ccc(C2c3[nH]c4ccc(Br)cc4c3CCC2O)cc1` (stereo not drawn) [Compound 237], the EC50 under setting [4] was in the range of 200 to 1000 nM.
As to `Fc1ccc(NC2CCCc3c2[nH]c2ccc(Br)cc32)cc1` (stereo not drawn) [Compound 24, (6-Bromo-2,3,4,9-tetrahydro-1H-carbazol-1-yl)-(4-fluoro-phenyl)-amine], the EC50 under setting [3] was in the range of 10 to 40 nM.
On to `CC1CCc2c(n(C)c3ccc(Br)cc23)C1=O` (stereo not drawn) [Compound 53, 6-Bromo-2,9-dimethyl-2,3,4,9-tetrahydro-carbazol-1-one], for which the EC50 under setting [3] was in the range of 40 to 200 nM.
The same measure, in the same setting: the figure for `Brc1ccc2[nH]c3c(c2c1)CCCC3Nc1ccc(N2CCOCC2)cc1` (stereo not drawn) [Compound 40, (6-Bromo-2,3,4,9-tetrahydro-1H-carbazol-1-yl)-(4-morpholin-4-yl-phenyl)-amine] is 40 to 200 nM.
On the same count and under the same terms, the figure for `Brc1ccc2[nH]c3c(c2c1)CCCC3NC1CCC(c2ccccc2)CC1` (stereo not drawn) [Compound 27, (6-Bromo-2,3,4,9-tetrahydro-1H-carbazol-1-yl)-(4-phenyl-cyclohexyl)-amine] is 10 to 40 nM; for `Brc1ccc2[nH]c3c(c2c1)CCCC3N1CCCC1` (stereo not drawn) [Compound 116, 6-Bromo-1-pyrrolidin-1-yl-2,3,4,9-tetrahydro-1H-carbazole] it is more than 1000 nM; for `O=C1CCCc2c1[nH]c1ccc(C(F)(F)F)cc21` [Compound 60, 6-Trifluoromethyl-2,3,4,9-tetrahydro-carbazol-1-one] it is 200 to 1000 nM.
On the same count and under the same terms, the figure for `O=C(NC1CCCc2c1[nH]c1ccc(Br)cc21)C1CC1` (stereo not drawn) [Compound 147, Cyclopropanecarboxylic acid (6-bromo-2,3,4,9-tetrahydro-1H-carbazol-1-yl)-amide] is 40 to 200 nM.
In the case of `Cc1ccc2c(c1)c1c3n2CCN(C(C)c2ccccc2)C3CCC1` (stereo not drawn) [Compound 179, 8-Methyl-3-(1-phenyl-ethyl)-2,3,3a,4,5,6-hexahydro-1H-pyrazino[3,2,1-jk]carbazole], the EC50 under setting [1] is more than 1000 nM and the EC50 under setting [2] is more than 10000 nM.
As to “3-[(2,3,4,9-Tetrahydro- 1H-carbazol-1-ylamino)- methylene]-1,3-dihydro- indol-2-one [Compound 158]”, the EC50 runs as follows: (purchased compounds 156-188, hypoxic conditions, read-out: ELISA Activity) 200 to 1000 nM; (purchased compounds 156-188, hypoxic conditions, read-out: ELISA EC50) 267 nM.
Regarding `O=C(NC1CCCc2c1[nH]c1ccc(Br)cc21)c1ccno1` (stereo not drawn) [Compound 150, isoxazole-5-carboxylic acid (6-bromo-2,3,4,9-tetrahydro-1H-carbazol-1-yl)-amide], the EC50 under setting [3] fell in the range of 10 to 40 nM.
For the molecule `O=C(NC1CCCc2c1[nH]c1ccc(Cl)cc21)c1cccs1` (stereo not drawn) [Compound 143, Thiophene-2-carboxylic acid (6-chloro-2,3,4,9-tetrahydro-1H-carbazol-1-yl)-amide], the EC50 under setting [3] was in the range of 40 to 200 nM.
On the same count and under the same terms, in the case of `CCOC(=O)C1CCCc2c1[nH]c1ccc(Br)cc21` (stereo not drawn) [Compound 90, 6-Bromo-2,3,4,9-tetrahydro-1H-carbazole-1-carboxylic acid ethyl ester] it was more than 1000 nM; in that of `Brc1ccc2[nH]c3c(c2c1)CCCC3NCC1CCCO1` (stereo not drawn) [Compound 77, (6-Bromo-2,3,4,9-tetrahydro-1H-carbazol-1-yl)-(tetrahydro-furan-2-ylmethyl)-amine], more than 1000 nM.
Regarding `COCCN(CCOC)CC(O)COc1ccc(C2CCCc3c2[nH]c2ccc(Br)cc32)cc1` (stereo not drawn) [Compound 198], the EC50 under setting [4] was less than 10 nM.
For the molecule `c1ccc2c3c([nH]c2c1)C(Nn1cccc1)CCC3` (stereo not drawn) [Compound 101, Pyrrol-1-yl-(2,3,4,9-tetrahydro-1H-carbazol-1-yl)-amine], under setting [3], the EC50 is more than 1000 nM.
Turning to `COC(=O)c1ccn(C2CCCc3c2[nH]c2ccc(Br)cc32)c1` (stereo not drawn) [Compound 26, 1-(6-Bromo-2,3,4,9-tetrahydro-1H-carbazol-1-yl)-1H-pyrrole-3-carboxylic acid methyl ester], the EC50 under setting [3] is 10 to 40 nM.
In the case of `CC(=O)Nc1ccc(NC2CCCc3c2[nH]c2ccc(Br)cc32)cc1` (stereo not drawn) [Compound 57, N-[4-(6-Bromo-2,3,4,9-tetrahydro-1H-carbazol-1-ylamino)-phenyl]-acetamide], under setting [3], the EC50 was 200 to 1000 nM.
For the molecule `NC1CCCc2c1[nH]c1ccc(Cl)cc21` (stereo not drawn) [Compound 96, 6-Chloro-2,3,4,9-tetrahydro-1H-carbazol-1-ylamine], the EC50 under setting [3] is more than 1000 nM.
Regarding `OC(COc1ccc(C2CCCc3c2[nH]c2ccc(Br)cc32)cc1)Cn1nccn1` (stereo not drawn) [Compound 227], under setting [4], the EC50 was less than 10 nM.
Turning to `c1ccc2c3c([nH]c2c1)C(n1cccc1)CCC3` (stereo not drawn) [Compound 102, 1-Pyrrol-1-yl-2,3,4,9-tetrahydro-1H-carbazole], the EC50 under setting [3] was more than 1000 nM.
Still for that read-out and setting: the figure for `Brc1ccc2[nH]c3c(c2c1)CCCC3c1nc2ccccc2o1` (stereo not drawn) [Compound 129, 1-Benzooxazol-2-yl-6-bromo-2,3,4,9-tetrahydro-1H-carbazole] is less than 10 nM.
Same read-out and setting: the figure for `O=C1N(c2ccccc2)C2CCCc3c2n1c1ccc(Br)cc31` (stereo not drawn) [Compound 112, 7-Bromo-2-phenyl-2a,3,4,5-tetrahydro-2H-2,9b-diaza-cyclopenta[jk]fluoren-1-one] is more than 1000 nM.
For `OC(COc1ccc(C2CCCCc3c2[nH]c2ccc(Cl)cc32)cc1)Cn1ccnn1` (stereo not drawn) [Compound 232], the EC50 under setting [4] lay in the range of 10 to 40 nM.
Consider `Clc1ccc(NC2CCCc3c2[nH]c2ccc(Br)cc32)cc1Cl` (stereo not drawn) [Compound 36, (6-Bromo-2,3,4,9-tetrahydro-1H-carbazol-1-yl)-(3,4-dichloro-phenyl)-amine], for which the EC50 under setting [3] was 40 to 200 nM.

The record behind these values is patent US9271960B2, “Tetrahydrocarbazoles as active agents for inhibiting VEGF production by translational control” (PTC Therapeutics, Inc., priority 2004, dated 2016).
